In PMC11790660 (Frontiers in Chemistry, 2025):

Key:
[1] = tested on: LO2 cell lines (normal liver cell)
[2] = tested on: RAW264.7 macrophage cells; assay: CCK-8 cell viability, RAW264.7 macrophages; format: cell-based, Mouse; conditions: 24 h
Procedure: To obtain more accurate anti-inflammatory results and minimize the impact of cell death caused by the test compounds on the outcomes, we first evaluated the effects of the compounds on RAW264.7 macrophage viability. The cells were divided into two groups: one treated with […] LPS and the other untreated. Macrophages were exposed to compounds at concentrations of 10, 50, and 100 μM for 24 h, followed by cell viability measurement using the CCK-8 assay ([Huang et al., 2022]; [Flannigan and Wallace, 2015]; [Citi et al., 2020]; [Gemici and Wallace, 2015]). […] In the presence of LPS stimulation, a slight reduction of 11% cell activity was observed.
The CCK-8 assay is a commonly used method for assessing cell viability, based on cellular metabolic activity. […]
The CCK-8 assay is a commonly used method for assessing cell viability, based on cellular metabolic activity. […] The culture plate is then incubated in a suitable incubator for a defined period (usually 4 hours), followed by measuring the absorbance of each group's culture medium using a spectrophotometer, typically at a wavelength of 450 nanometers. Cell relative activity or viability is calculated based on absorbance values, often by subtracting the background absorbance from the control group's values and normalizing to the control group's values to obtain relative activity or viability.

PI3Kγ = PI3Kγ (Homo sapiens, UniProt P48736); assay: In vitro PI3K enzyme inhibitory assay (ADP-Glo), PI3Kγ; format: biochemical; conditions: read-out: PI3Kγ % inhibition at 10 μM
PI3Kα = PI3Kα (Homo sapiens, UniProt P42336); assay: In vitro PI3K enzyme inhibitory assay (ADP-Glo), PI3Kα; format: biochemical; conditions: read-out: PI3Kα % inhibition at 10 μM
[3] = tested on: HO-1 levels in RAW264.7 cells; assay: ELISA, HO-1 in RAW264.7; format: cell-based, Mouse; conditions: RAW264.7, 24 h
[4] = tested on: LO2 cell lines (normal liver cell); assay: cells; conditions: Homo sapiens, L02, 24 h, read-out: IC50 LO2
WI38 normal cells [5] = tested on: WI38 normal cells
WI38 normal cells [6] = assay: cells; conditions: Homo sapiens, WI-38, read-out: IC50 WI38
MCF-7 = assay: cells; format: cell-based; conditions: Homo sapiens, MCF7, read-out: IC50 against cell proliferation, MCF-7
[7] = tested on: IL-10 level in RAW264.7 cells; assay: ELISA, IL-10 in RAW264.7; format: cell-based, Mouse; conditions: RAW264.7, 24 h
HeLa = assay: cells; format: cell-based; conditions: Homo sapiens, HeLa, read-out: IC50 against cell proliferation, HeLa
[8] = tested on: HepG2 cell lines (liver tumor cell); assay: cells; conditions: Homo sapiens, HepG2, 24 h, read-out: IC50 HepG2
[9] = H2S release, methylene blue (MB+) method; format: physicochemical; conditions: MB+ method with TECP or cysteine; different temperature and pH
[10] = tested on: HepG2 cell lines (liver tumor cell)
[11] = tested on: nitrite production in RAW264.7 cells; assay: Griess assay, LPS-induced nitrite production in RAW264.7; format: cell-based; conditions: Mus musculus, 24 h, 1 mg/mL LPS
From the text: Nitric oxide (NO) affects inflammation signaling pathways, regulating the intensity and timing of inflammatory responses, making it a crucial regulatory molecule in inflammation. LPS induces the production of nitric oxide (NO) by activating a series of signal transduction pathways. Upon NF-κB activation, transcription of the iNOS gene is promoted, leading to the synthesis of inducible nitric oxide synthase (iNOS). iNOS is an enzyme that produces large amounts of NO, activated under inflammatory conditions to release substantial nitric oxide ([Kumar, 2023]). In vivo, NO is easily oxidized by superoxide ions to generate nitrites. Studies have shown that H2S not only acts to scavenge peroxides but also undergoes chemical reactions with NO, forming novel nitrosylthiol compounds. We assess the anti-inflammatory activity of compounds by measuring nitrite production ([Somensi et al., 2019]).
The Griess assay is used to measure nitrite levels in biological samples, both in vivo and in vitro. See Supplementary Material for more details ([Kumar, 2023]).
The Griess assay is used to measure nitrite levels in biological samples, both in vivo and in vitro. […] The absorbance is measured at a wavelength of 540-550 nanometers, and the concentration of the red product is directly proportional to the absorbance. Nitrite concentrations can be calculated using a standard curve.

AKT = assay: In vitro AKT enzyme inhibitory assay; format: biochemical
[12] = tested on: TNF-α levels in RAW264.7 cells; assay: ELISA, LPS-mediated TNF-α in RAW264.7; format: cell-based, Mouse; conditions: LPS-induced RAW264.7, 24 h, vs control group
PI3Kβ = PI3Kβ (Homo sapiens, UniProt P42338); assay: In vitro PI3K enzyme inhibitory assay (ADP-Glo), PI3Kβ; format: biochemical; conditions: read-out: PI3Kβ % inhibition at 10 μM
A549 = assay: cells; format: cell-based; conditions: Homo sapiens, A549, read-out: IC50 against cell proliferation, A549

PI3Kγ, sequence (P48736 whole entry): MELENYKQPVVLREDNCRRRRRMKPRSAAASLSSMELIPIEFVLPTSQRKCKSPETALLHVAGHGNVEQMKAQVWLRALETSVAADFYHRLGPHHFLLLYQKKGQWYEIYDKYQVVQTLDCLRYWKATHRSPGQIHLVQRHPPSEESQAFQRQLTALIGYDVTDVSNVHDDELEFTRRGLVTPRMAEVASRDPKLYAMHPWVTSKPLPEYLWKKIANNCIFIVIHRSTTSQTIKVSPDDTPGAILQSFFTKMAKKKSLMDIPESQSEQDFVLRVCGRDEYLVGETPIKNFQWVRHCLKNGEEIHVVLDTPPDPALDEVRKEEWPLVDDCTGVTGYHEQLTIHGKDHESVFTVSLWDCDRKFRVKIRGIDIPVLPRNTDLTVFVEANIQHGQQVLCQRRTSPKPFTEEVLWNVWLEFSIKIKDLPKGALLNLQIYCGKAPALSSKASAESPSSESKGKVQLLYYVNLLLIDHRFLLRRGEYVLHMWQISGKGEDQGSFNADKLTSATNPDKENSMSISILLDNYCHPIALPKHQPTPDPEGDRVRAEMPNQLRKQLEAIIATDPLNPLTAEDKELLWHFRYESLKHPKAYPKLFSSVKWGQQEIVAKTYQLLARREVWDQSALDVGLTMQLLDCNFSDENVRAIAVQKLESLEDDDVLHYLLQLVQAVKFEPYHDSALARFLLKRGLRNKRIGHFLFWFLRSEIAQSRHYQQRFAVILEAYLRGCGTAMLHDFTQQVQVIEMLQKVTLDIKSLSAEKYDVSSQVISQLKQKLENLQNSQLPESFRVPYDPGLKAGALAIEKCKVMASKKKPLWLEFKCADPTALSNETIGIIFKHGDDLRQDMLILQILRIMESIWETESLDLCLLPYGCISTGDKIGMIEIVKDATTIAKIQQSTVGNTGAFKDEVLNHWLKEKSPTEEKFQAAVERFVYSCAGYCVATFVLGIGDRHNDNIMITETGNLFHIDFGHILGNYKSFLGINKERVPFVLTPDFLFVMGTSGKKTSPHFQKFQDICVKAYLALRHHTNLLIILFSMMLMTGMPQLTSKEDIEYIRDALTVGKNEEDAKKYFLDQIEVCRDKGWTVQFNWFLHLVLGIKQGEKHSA
PI3Kα, sequence (P42336 whole entry): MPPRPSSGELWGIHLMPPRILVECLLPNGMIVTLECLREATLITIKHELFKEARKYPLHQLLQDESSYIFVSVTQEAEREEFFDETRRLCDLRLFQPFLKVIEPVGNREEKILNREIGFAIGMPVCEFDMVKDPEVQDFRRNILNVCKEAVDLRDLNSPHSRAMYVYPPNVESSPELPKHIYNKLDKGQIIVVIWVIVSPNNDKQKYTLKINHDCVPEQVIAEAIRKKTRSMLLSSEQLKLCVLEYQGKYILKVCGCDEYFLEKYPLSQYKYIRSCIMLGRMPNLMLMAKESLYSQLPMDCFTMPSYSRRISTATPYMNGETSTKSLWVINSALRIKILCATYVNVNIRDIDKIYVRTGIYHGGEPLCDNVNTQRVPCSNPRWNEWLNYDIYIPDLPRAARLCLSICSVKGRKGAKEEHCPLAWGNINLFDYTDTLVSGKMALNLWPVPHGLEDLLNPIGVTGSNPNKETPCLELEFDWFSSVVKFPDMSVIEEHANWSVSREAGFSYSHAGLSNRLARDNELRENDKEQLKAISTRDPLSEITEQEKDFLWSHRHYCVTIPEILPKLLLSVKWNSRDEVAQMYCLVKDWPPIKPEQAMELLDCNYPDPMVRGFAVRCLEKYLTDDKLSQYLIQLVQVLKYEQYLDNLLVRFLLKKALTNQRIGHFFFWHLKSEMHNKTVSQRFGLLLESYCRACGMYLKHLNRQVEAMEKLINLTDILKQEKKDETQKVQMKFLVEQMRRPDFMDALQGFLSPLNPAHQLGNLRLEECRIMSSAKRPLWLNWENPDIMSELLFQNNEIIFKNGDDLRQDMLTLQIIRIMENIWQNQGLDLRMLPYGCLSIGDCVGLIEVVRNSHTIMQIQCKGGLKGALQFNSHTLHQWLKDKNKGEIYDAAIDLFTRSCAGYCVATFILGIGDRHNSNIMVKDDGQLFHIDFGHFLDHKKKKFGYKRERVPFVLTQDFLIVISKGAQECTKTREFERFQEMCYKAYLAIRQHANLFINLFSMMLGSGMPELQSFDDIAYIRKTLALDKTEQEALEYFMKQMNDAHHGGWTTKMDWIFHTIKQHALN
PI3Kα, sequence (P27986 whole entry partner): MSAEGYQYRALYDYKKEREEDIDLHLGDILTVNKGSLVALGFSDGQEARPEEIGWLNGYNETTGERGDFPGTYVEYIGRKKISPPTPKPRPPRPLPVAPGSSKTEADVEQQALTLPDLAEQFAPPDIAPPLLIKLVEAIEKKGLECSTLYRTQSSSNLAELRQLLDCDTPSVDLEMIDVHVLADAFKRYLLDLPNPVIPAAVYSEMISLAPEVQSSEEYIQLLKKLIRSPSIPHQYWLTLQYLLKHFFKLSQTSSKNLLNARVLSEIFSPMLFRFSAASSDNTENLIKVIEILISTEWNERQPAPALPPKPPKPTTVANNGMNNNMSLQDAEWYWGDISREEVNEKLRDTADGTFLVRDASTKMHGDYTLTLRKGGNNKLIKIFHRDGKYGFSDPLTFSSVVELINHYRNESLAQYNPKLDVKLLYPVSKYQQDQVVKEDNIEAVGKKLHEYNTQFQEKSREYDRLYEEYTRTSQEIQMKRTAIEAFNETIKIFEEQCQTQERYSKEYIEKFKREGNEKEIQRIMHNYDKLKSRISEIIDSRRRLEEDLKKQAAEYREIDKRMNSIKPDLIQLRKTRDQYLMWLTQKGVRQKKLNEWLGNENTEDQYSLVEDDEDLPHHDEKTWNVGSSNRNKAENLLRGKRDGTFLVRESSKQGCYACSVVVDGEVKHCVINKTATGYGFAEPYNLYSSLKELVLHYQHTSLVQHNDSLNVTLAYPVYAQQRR
PI3Kβ, sequence (P42338 whole entry): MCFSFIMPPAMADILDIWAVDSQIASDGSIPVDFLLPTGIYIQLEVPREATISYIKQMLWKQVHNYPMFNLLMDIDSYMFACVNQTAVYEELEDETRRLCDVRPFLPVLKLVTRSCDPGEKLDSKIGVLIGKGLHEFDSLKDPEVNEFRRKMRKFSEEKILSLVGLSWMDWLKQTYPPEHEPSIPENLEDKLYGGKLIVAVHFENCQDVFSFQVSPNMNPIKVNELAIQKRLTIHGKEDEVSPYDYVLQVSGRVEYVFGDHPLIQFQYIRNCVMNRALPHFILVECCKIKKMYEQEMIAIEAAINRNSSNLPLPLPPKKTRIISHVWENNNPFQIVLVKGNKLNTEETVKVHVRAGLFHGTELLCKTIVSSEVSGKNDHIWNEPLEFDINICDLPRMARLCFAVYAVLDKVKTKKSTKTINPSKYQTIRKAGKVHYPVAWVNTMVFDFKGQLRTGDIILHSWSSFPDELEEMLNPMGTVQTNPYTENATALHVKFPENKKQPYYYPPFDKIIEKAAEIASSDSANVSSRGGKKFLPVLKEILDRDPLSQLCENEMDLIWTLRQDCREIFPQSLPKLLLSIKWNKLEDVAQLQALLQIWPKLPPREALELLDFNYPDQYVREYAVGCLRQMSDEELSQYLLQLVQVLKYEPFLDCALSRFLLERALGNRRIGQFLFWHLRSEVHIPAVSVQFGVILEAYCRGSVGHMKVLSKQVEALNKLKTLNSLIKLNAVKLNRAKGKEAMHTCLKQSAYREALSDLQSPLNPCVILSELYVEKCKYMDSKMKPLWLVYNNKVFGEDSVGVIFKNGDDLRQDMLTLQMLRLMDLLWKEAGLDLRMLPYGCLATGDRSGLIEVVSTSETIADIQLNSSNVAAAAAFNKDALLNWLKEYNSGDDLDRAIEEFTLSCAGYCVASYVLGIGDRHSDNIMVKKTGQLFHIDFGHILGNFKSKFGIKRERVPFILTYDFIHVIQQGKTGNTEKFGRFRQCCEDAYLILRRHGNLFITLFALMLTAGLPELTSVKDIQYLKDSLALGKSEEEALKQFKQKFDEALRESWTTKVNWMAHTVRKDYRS
PI3Kβ, sequence (P27986 whole entry partner): as the sequence (P27986 whole entry partner) above

O=[N+]([O-])c1ccc2c(c1)NP(=S)(c1ccccc1)O2 (centres unmarked) [Compound S11, 5-nitro-2-phenyl-3H-benzo [d][1,3,2] oxazaphosphole 2-sulfide]
Toxicity in words, LO2 [1]: low cytotoxicity
Effect on RAW264.7 cell growth ([2]; absence of LPS, 10, 50, 100 μM): no significant effect on cell growth
Reduction of RAW264.7 cell activity ([2]; presence of LPS stimulation, 10, 50, 100 μM): 11%
inhibition at 10 µM (PI3Kγ): 45%
inhibition at 10 µM (PI3Kα): 67%
HO-1 expression relative to control group [3]: approximately twice the level of the control group
IC50 [4]: > 200 µM
Toxicity in words, WI38 (WI38 normal cells [5]): low cytotoxicity
IC50 (WI38 normal cells [6]): > 200 µM
IC50 (MCF-7): 23 ± 3.2 µM
Induction level of IL-10 relative to control group [7]: three times that of the control group
IC50 (HeLa): 260 ± 7.6 µM
IC50 [8]: > 400 µM
H2S release amount (in words) [9]: the highest amount of hydrogen sulfide was released
Toxicity in words, HepG2 [10]: low cytotoxicity
inhibition at 100 µM [11]: ~75%
AKT % inhibition at 10 μM (AKT): 61%
Decrease of TNF-α induction level [12]: 80%
inhibition at 10 µM (PI3Kβ): 75%
IC50 (A549): 294 ± 16.6 µM
